Test results as given in patent US5989846A, “Assays to identify inducers of plant defense resistance” (Rutgers, The State University of New Jersey, priority 1995, dated 1999).
Counter-ions that a name gives are not always drawn. Like-named read-outs stand apart in the source and are kept apart here.

Tests used:
[1] = system: salicylic acid binding protein; experiment: Binding of 14C-labelled ligands by partially purified SABP; set-up: species or system tobacco; conditions: for [14C] radioactivity bound, with protein / [14C] radioactivity bound, without protein: 50 μM ligand, n = 3, SD; for [14C] radioactivity bound, with protein: 3 mg/ml partially purified SABP; for [14C] radioactivity bound, without protein: no protein
Description: Binding was assayed with 3 mg/ml of the
(§1) A key element during the characterization and the purification process is a simple, inexpensive, sensitive and reliable method for determining the salicylic acid binding activity. For this purpose, spin-column exclusion chromatography was used to separate the bound [^14 C] salicylic acid (excluded) from the bulk free salicylic acid (included). Specifically, a 1.5 ml Eppendorf tube was punctured at the tip with a 20-gauge needle and a small amount of glass wool was added to cover the small hole. The tube was then filled with Bio-Gel P-6DG desalting gel (exclusion limit 6 KDa; purchased from Bio-Rad, Melville, N.Y.) which have been swollen in water. An alternative gel is Sephadex G-25 fine (from Pharmacia, Piscataway, N.J.). Excess liquid in the gel was removed and centrifuged for 5 minutes at full speed in a Dynamic centrifuge (Becton Dickinson). The process was then repeated several times until the gel filled the tube. After incubation of an aliquot of the extract or column fractions for 2 hr at 4° C. with 5 μM-20 μM [^14 C salicylic acid] (specifically radioactivity 55 Ci/mol; purchased from New England Nuclear), 150 μl of proteins binding sample was loaded onto the tube column, which was then rapidly centrifuged for 2 minutes at full speed and the solution of proteins and bound [^14 C-salicylic acid] that was excluded from the gel was collected into another tube that had been placed under the tube column during the centrifugation. One hundred microliters of this solution was then used to determine the amount of bound salicylic acid. With this binding assay, characterization of the salicylic acid binding protein can be carried out very rapidly. For example, to determine the inhibitory effect of various salicylic acid analogues on salicylic acid binding activity, these individual analogues were included in the binding mixture containing both the protein and [^14 C] salicylic acid during the 2 hr incubation, and resulting binding activity was determined in comparison to the activity in the absence of these analogues. Likewise, to determine the effect of pH and antioxidants on the binding activity the protein sample was either dialyzed against a large volume of buffers with different pH or antioxidants were added to the protein sample to various concentrations and the resulting binding activities were then determined with the spin-column method in comparison with the activity determined in the absence of these treatments.

[2] = system: resistance or PR gene expression; set-up: key: ++: indicates a high level of biological activity; +: indicates a lower level of biological activity; ±: indicates low, but detectable biological activity in some assays; -: indicates no biological activity; conditions: Table 3; values reported in literature; cited from earlier work
SABP = system: SABP; set-up: concentration or dose not given beside the values; conditions: Table 6; previously published data (Chen et al. 1993); cited from earlier work
[3] = biological target: T1, catalase activity of SABP (Nicotiana tabacum, UniProt P49319); experiment: Catalase activity of highly purified SABP (luminol method); assay type: biochemical, tobacco; conditions: for inhibition at 1000 µM: 0.05 h, 1 mM SA or analogue, 1 mM H2O2, 500 ng highly purified SABP; for Inhibition of the catalase activity of SABP (in words): compared with SA
T1 sequence (P49319 1-492): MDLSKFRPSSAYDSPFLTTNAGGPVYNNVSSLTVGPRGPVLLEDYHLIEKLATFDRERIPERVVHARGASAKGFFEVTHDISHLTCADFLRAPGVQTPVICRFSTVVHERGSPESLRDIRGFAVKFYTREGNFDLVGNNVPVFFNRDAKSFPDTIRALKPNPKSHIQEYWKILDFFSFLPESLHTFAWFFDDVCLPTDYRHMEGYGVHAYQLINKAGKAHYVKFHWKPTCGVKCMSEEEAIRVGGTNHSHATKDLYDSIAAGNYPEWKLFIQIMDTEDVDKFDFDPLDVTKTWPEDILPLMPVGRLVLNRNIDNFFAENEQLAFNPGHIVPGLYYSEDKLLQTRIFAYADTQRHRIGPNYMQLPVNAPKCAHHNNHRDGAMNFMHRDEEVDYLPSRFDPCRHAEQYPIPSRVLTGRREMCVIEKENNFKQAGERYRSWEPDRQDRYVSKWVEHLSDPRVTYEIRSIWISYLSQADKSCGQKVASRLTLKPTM
Description: Aliquots (50 μl) were removed from the assay mixture at 30 second intervals to assay for amount of H2 O2 remaining using the luminol method as has been described by Warm and Laties, Phytochem. […] The tube was placed in the measuring chamber and assay was initiated with automatic injection into the mixture of 100 μl of 0.5 mM K3 Fe(CN)6 in 0.2N NH4 OH, pH 9.5. Measurements were integrated over 5 second periods. H2 O2 was calculated from the standard curve constructed with known amounts of H2 O2. Rate constants of SABP catalase activity in the presence or absence of SA or its analogues were then calculated based on a first-order mechanism.

[4] = system: salicylic acid binding protein; experiment: Competitive [14C] salicylic acid binding assay (spin-column); set-up: species or system tobacco; conditions: [14C] salicylic acid 20 μM; for Inhibition (%) 2×: 40 μM (2×) unlabeled competitor; for Inhibition (%) 10×: 200 μM (10×) unlabeled competitor
Description: The 180 kDa native binding protein isolated was tested for binding affinity and specificity. A competitive assay was established using salicylic acid binding protein fractionated from plants as previously described.
as §1, with “With this binding assay, characterization of the salicylic acid binding protein can be carried out very rapidly.” left out

TMV = assay type: in vivo, tobacco mosaic virus
Description: The SA/SAG valves are given in micrograms per gram fresh weight of leaf tissue and represent averages of values from 3-6 treated plants at 6 days past injection. […] For determination of reduction in lesion size, longitudinal halves of 2 leaves on 3-6 plants were injection with chemicals, and six days later the entire leaf was infected with TMV. Twenty lesions were measured on each half of the leaf seven days post infection; the values given represent the average percent reduction in lesion diameter in the treated leaf half compared to the untreated half.

ascorbate peroxidase = experiment: Ascorbate peroxidase activity in tobacco leaf extracts; assay type: biochemical, Nicotiana tabacum cv. Xanthi nc; conditions: 200 μM compound, corrected for quenching of auto oxidation
Description: […] Two grams of leaves from 6-8 week old tobacco plants (Nicotiana tabacum cv. Xanthi nc) grown at 22° C. in a 14 hr light cycle were homogenized under liquid nitrogen using a pestle and mortar.
To obtain ascorbate peroxidase-containing extracts, the soluble proteins were extracted by grinding the powder in 10 ml of 100 mM potassium phosphate, pH 7, containing […] ascorbate and 1% (weight/volume) polyvinylpyrrolidone, with a small amount of quartz sand. The homogenate was centrifuged at 14,000 g for 5 min. […] The pellet resulting from centrifugation (14,000 g, 15 min.) was resuspended in extraction buffer (100 mM potassium phosphate, pH7, containing 0.25 mM ascorbate and 1% (weight/volume) polyvinylpyrrolidone) and desalted on a PD-10 column (Pharmacia) equilibrated with 50 mM potassium phosphate, pH 7, containing 100 μM ascorbate. The extract was used immediately. […] The amount of protein per assay was 30-50 μg. Oxidation of ascorbate was followed by the decrease in the absorbance at 290 nm.
The values illustrated in FIG. 17 are the mean values for three replicated assays.

catalase = experiment: In vivo catalase activity in tobacco suspension cells (oxygen electrode); assay type: cell-based
Description: This was determined by adding increasing concentrations of SA or INA to tobacco suspension cells (derived from cultivar Xanthi nc), as described below. The tobacco suspension cell culture was grown in the dark in MS medium at approximately 22° C. with agitation (160 rpm). Cells were maintained by diluting 10-fold every 5 days. For experimentation, 5 ml of suspension cells obtained 3 days after dilution was transferred to a 25 ml Erlenmeyer flask and agitated (100 rpm) at room temperature in the absence or presence of SA or INA which had been adjusted to pH 5.8. After 1 hr, 1 ml of the treated cell suspension was transferred to 7 ml of fresh MS medium containing SA or INA in a 10 ml beaker (density was approximately 6 mg cells per ml). Cells were maintained in suspension with a magnetic stir bar. In vivo catalase activity was determined by measuring, with an oxygen electrode, the rate of H2 O2 -dependent O2 production immediately after addition of H2 O2 to 10 mM final concentration.

PR1 genes = experiment: PR-1 protein/gene expression in tobacco leaves (immunoblot); assay type: in vivo; conditions: N.t. cv. Xanthi nc
Description: The level of PR1 protein in tobacco leaves was analyzed by immunoblot analysis to establish biological activity. Three leaf discs (1 cm in diameter) were homogenized in 200 microliters of buffer containing 50 mM Tris (pH 8.0), 1 mM EDTA, 12 mM beta-mercaptoethanol and 10 mg/ml phenylmethylsulfonyl fluoride. The homogenate was centrifuged at full speed for 10 minutes in an Eppendorf microcentrifuge. The supernatant was fractionated with 15% polyacrylamide gel under denatured conditions. Protein blotting was done with a monoclonal antibody specific to PR1 protein and protein-antibody complexes were detected with an ECL kit from Amersham.
PR gene expression is both induced by SA and associated with the development of SAR. Therefore, it was of interest to test whether SA's mechanism of action for the induction of PR genes was via its inhibition of catalases which leads to enhanced H2 O2 levels. To address this question, H2 O2 abundance was artificially raised in tobacco leaves by treating with H2 O2 or compounds which either inhibit the catalase activity, like SA itself, or promote generation of H2 O2 in vivo. […]

SABP/catalase = experiment: Competition with 14C-labeled SA for SABP/catalase in crude leaf extracts; assay type: binding, tobacco; conditions: in vitro

inhibition at 1000 µM [3] [%] | Inhibition (%) 2× [4] [%] | Inhibition (%) 10× [4] [%] | Compound | Biological activity [2] | Inhibition (%) [14C]SA binding (SABP) [%] | further results
 |  |  | O=C(O)[14c]1ccccc1O [[^14 C] salicylic acid] |  |  | [14C] radioactivity bound, with protein [1]: 989 ± 78 dpm/100 μl; [14C] radioactivity bound, without protein [1]: 89 ± 7 dpm/100 μl
 |  |  | [Acetyl-^14 C] acetylsalicylic acid |  |  | [14C] radioactivity bound, with protein [1]: 96 ± 10 dpm/100 μl; [14C] radioactivity bound, without protein [1]: 104 ± 9 dpm/100 μl
 |  |  | CCC(N)C(=O)O (stereo not drawn) [α-amino butyric acid] |  |  | Reduction in lesion size (%) (TMV; TMV infection six days after injection, lesions measured seven days post infection, treated vs untreated leaf half): 63%
 |  |  | CC(=O)Oc1ccccc1[14C](=O)O [[carboxyl-^14 C] acetylsalicylic acid] |  |  | [14C] radioactivity bound, with protein [1]: 397 ± 25 dpm/100 μl; [14C] radioactivity bound, without protein [1]: 112 ± 10 dpm/100 μl
 |  |  | O=C(O)c1ccc(Cl)cc1O [4-Chlorosalicylic acid] |  |  | % Inhibition of ascorbate peroxidase (ascorbate peroxidase): 58 ± 4%; Inhibition of catalase activity in vivo (in words) (catalase): very effectively inhibited catalase activity; Induction of PR-1 protein synthesis / PR-1 gene induction (in words) (PR1 genes): potent inducers of PR-1 protein synthesis; Enhanced resistance to TMV infection (reduction in lesion size) (TMV; N.t. cv. Xanthi nc plants, compared to water-treated control plants): enhanced resistance to TMV infection; Inhibition of binding of 14C-labeled SA to SABP/catalase in vitro (in words) (SABP/catalase): very effectively inhibited
 |  |  | Cc1ncc(C[n+]2csc(CCO)c2C)c(N)n1 [thiamine-HCl] |  |  | Reduction in lesion size (%) (TMV; in vivo): 71%
15.3 | 1 | 10 | O=C(O)c1cccc(O)c1O [2,3-Dihydroxybenzoic acid] | ± | 9 | Inhibition of the catalase activity of SABP (in words) [3]: poor inhibitor
91.3 | 51 | 91 | O=C(O)c1c(O)cccc1O [2,6-Dihydroxybenzoic acid] | ++ | 92 | % Inhibition of ascorbate peroxidase (ascorbate peroxidase): 72 ± 8%; Inhibition of the catalase activity of SABP (in words) [3]: somewhat stronger
3.2 | 1 | -1 | O=C(O)c1cc(O)ccc1O [2,5-Dihydroxybenzoic acid] | - | 1 | 
 |  |  | [Ba+2].[Cl-].[Cl-] [BaCl2, barium chloride] |  |  | Reduction in lesion size (%) (TMV; in vivo): 60%

Compound | inhibition at 1000 µM [3] [%] | Inhibition (%) 2× [4] [%] | Inhibition (%) 10× [4] [%] | Biological activity [2] | Inhibition (%) [14C]SA binding (SABP) [%] | further results
CC(=O)Oc1ccccc1C(=O)O [Acetylsalicylic acid] | 53.6 | 25 | 57 | ++ | 48 | Binding by the salicylic acid binding protein ([1]; conclusion from Table 4): not actually bound; Inhibition of the catalase activity of SABP (in words) [3]: weaker than SA
O=C(O)c1ccc(O)cc1 [4-Hydroxybenzoic acid] | 4.1 | 1 | -2 | - | -2 | % Inhibition of ascorbate peroxidase (ascorbate peroxidase): 0 ± 6%
